Results as given in US12441726B2, “Compounds and uses thereof” (Foghorn Therapeutics Inc., priority 2020, dated 2025).
Where two headings read alike, the source gives them in different places.

Columns and labels:
BRG-1 = BRG-1 (Homo sapiens, UniProt P51532); test: ATPase catalytic activity assay (ADP-Glo), BRG-1; details: for Emax: 1 h, read-out: BRG1 Max % Inhibition, ADP-Glo, 30 nM BRG-1, 400 μM ATP
BRM = BRM (Homo sapiens, UniProt P51531); test: ATPase catalytic activity assay (ADP-Glo), BRM; details: 30 nM BRM, 400 μM ATP; for IC50: BRM ATPase: IC50 (uM)
Chain of BRM (P51531 whole entry): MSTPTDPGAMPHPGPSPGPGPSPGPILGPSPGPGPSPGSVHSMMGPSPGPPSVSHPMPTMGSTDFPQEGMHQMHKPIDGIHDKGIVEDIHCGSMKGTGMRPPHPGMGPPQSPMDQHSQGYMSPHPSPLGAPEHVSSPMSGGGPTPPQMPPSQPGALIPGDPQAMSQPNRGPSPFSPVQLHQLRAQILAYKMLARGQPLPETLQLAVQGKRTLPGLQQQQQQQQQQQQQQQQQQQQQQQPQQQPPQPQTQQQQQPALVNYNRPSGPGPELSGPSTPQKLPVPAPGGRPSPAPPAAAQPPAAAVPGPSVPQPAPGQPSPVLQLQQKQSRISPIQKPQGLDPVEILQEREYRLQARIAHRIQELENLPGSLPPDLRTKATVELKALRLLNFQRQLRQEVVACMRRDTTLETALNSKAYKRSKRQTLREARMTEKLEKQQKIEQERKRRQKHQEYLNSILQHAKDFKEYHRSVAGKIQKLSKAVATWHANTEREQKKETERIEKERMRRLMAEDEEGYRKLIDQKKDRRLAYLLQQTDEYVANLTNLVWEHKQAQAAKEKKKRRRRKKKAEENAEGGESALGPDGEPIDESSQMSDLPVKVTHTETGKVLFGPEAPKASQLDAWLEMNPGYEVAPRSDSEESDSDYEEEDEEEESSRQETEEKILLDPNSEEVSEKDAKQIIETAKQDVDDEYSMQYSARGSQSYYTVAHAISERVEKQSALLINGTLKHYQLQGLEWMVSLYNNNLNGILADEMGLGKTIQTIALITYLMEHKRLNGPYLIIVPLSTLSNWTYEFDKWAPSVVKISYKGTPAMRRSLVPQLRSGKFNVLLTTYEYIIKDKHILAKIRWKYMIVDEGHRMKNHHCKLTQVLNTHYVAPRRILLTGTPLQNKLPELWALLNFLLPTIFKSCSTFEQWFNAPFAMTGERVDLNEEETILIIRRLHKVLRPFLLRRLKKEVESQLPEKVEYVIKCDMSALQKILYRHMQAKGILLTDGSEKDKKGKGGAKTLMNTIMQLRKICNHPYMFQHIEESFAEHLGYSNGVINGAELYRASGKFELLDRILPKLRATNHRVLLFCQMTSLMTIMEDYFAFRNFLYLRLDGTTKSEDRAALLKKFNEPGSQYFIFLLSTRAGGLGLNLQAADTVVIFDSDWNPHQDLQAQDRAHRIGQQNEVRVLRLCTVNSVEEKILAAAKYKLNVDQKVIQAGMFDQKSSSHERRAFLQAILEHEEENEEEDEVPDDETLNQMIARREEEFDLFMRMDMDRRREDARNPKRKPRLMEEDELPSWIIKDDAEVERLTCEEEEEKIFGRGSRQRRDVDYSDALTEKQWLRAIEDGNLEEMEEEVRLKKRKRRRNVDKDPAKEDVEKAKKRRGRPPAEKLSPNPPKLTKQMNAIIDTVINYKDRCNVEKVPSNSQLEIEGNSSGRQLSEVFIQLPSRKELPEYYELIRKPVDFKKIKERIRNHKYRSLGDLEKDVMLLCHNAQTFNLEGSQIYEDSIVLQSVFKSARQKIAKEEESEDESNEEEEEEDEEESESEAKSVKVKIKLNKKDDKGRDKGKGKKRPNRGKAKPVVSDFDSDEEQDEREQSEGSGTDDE

Chain of BRG-1 (P51532 whole entry): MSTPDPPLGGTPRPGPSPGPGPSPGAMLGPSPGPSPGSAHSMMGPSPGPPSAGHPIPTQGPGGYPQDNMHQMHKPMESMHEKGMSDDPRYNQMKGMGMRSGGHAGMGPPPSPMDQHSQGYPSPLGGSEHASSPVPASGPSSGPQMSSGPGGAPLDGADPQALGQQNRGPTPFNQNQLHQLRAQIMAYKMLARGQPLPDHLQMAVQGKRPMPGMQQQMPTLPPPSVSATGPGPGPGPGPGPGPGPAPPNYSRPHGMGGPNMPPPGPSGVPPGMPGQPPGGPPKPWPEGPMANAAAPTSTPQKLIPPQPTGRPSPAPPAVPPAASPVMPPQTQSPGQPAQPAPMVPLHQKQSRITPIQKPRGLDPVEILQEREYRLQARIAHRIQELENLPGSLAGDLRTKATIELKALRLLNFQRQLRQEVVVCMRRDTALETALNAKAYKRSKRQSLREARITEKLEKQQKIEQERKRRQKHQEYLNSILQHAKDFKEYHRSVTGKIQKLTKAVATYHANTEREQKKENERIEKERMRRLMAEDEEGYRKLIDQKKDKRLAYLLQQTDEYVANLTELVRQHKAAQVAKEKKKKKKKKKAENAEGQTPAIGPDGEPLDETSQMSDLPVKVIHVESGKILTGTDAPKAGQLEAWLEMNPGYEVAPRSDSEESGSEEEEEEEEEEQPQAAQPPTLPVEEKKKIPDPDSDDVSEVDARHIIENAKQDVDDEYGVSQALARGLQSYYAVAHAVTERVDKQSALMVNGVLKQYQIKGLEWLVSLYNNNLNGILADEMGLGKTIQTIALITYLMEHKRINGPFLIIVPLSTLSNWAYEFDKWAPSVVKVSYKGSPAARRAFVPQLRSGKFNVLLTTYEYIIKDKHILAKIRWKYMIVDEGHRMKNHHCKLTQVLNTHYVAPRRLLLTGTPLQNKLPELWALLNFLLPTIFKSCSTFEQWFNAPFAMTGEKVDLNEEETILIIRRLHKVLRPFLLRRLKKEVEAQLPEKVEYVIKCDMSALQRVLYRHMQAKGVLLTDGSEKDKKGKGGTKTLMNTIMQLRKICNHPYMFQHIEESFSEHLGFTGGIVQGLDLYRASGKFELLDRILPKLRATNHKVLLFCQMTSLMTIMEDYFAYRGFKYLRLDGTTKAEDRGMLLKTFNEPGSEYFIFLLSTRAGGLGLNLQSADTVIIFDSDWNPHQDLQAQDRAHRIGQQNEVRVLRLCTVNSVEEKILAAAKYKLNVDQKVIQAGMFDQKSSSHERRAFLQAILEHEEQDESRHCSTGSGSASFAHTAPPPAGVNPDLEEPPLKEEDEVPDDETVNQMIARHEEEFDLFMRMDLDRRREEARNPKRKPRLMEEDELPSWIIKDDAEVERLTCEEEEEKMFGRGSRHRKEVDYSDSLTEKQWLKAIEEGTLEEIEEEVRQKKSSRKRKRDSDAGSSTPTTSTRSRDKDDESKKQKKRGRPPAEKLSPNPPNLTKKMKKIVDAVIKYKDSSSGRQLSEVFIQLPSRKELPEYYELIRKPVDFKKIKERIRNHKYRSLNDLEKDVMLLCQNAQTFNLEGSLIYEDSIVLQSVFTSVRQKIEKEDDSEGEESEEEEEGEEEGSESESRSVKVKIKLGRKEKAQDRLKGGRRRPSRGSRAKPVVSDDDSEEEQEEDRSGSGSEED

| IC50 (BRG-1) [nM] | Emax (BRG-1) [%] | BRM Max % Inhibition (BRM) [%] | IC50 (BRM) [µM] | BRG1 Max % Inhibition (BRG-1; ADP-Glo, 30 nM BRG-1, 400 μM ATP) [%] | IC50 (BRG-1; read-out: BRG1 ATPase: IC50, ADP-Glo, 30 nM BRG-1, 400 μM ATP) [nM] | SMILES |
| --- | --- | --- | --- | --- | --- | --- |
| > 1000 | 36 | 87 | 0.1 to 0.5 | – | – | C[C@@]1(C#N)COCc2ccc(C(=O)NCc3cc4nc(-c5cnn(C6COC6)c5)ccc4cn3)cc21 [Compound 513] |
| > 1000 | 25 | 83 | 0.1 to 0.5 | – | – | CN1CCC(c2cccc(-c3ccc4cnc(CNC(=O)c5ccc6c(c5)[C@](C)(C#N)COC6)cc4n3)n2)CC1 [Compound 131] |
| 500 to 1000 | 76 | 98 | < 0.1 | – | – | COc1ccccc1-c1cnc2cnc(CNC(=O)c3ccc4c(c3)[C@](C)(F)COC4)cc2n1 [Compound 256] |
| 500 to 1000 | 70 | 97 | 0.1 to 0.5 | – | – | CN(C)c1nccc(N2CCc3cnc(CNC(=O)c4ccc5c(c4)[C@](C)(C#N)COC5)cc3C2)n1 [Compound 326] |
| 500 to 1000 | 87 | 98 | < 0.1 | – | – | Cn1ncc2cc(-c3ccc4cnc(CNC(=O)c5ccc6c(c5)[C@](C)(C#N)COC6)cc4n3)ccc21 [Compound 105] |
| > 1000 | 47 | 90 | 0.1 to 0.5 | – | – | O=C(NCc1cc(C#Cc2ccccc2)ccn1)c1ccc2c(c1)[C@@](F)(C(F)F)COC2 [Compound 47] |
| 100 to 500 | 96 | 100 | < 0.1 | – | – | COCc1cc2c(-c3ccc4cnc(CNC(=O)c5ccc6c(c5)[C@](C)(C#N)COC6)cc4n3)cccc2n1C [Compound 141] |
| > 1000 | 72 | 94 | 0.1 to 0.5 | – | – | Cc1ccn(-c2ccc3cnc(CNC(=O)c4ccc5c(c4)[C@](C)(C#N)COC5)cc3n2)n1 [Compound 503] |
| 500 to 1000 | 67 | 94 | 0.1 to 0.5 | – | – | COc1c(-c2ccc3cnc(CNC(=O)c4ccc5c(c4)[C@](C)(C#N)COC5)cc3n2)cnn1C(F)F [Compound 184] |
| > 1000 | 92 | 98 | 0.1 to 0.5 | – | – | COCCOCCNC(=O)c1cccc(-c2ccc3cnc(CNC(=O)c4ccc5c(c4)[C@](C)(C#N)COC5)cc3n2)c1 [Compound 316] |
| 100 to 500 | 82 | 97 | < 0.1 | – | – | C[C@@]1(C#N)COCc2ccc(C(=O)NCc3cc4nc(-c5ccn6ncc(C(F)F)c6n5)ccc4cn3)cc21 [Compound 309] |
| 100 to 500 | 87 | 96 | 0.1 to 0.5 | – | – | C[C@@]1(C#N)COCc2ccc(C(=O)NCc3cc4nc(N5Cc6ccccc6C5=O)ccc4cn3)cc21 [Compound 303] |
| 100 to 500 | 82 | 96 | 0.1 to 0.5 | – | – | C[C@@]1(C#N)COCc2ccc(C(=O)NCc3cc4cc(-c5ccnc(C6CC6)c5F)cnc4cn3)cc21 [Compound 280] |
| 100 to 500 | 93 | 99 | < 0.1 | – | – | COC(=O)c1cccc(-c2ccc3cnc(CNC(=O)c4ccc5c(c4)[C@](C)(C#N)COC5)cc3n2)c1 [Compound 93] |
| > 1000 | 46 | 83 | 0.1 to 0.5 | – | – | C[C@@]1(C#N)COCc2ccc(C(=O)NCc3cc4nc(N5CCN(C6CC6)C5=O)ccc4cn3)cc21 [Compound 312] |
| 100 to 500 | 86 | 97 | < 0.1 | – | – | C[C@@]1(C#N)COCc2ccc(C(=O)NCc3cc4nc(-c5ccn6nccc6c5)ccc4cn3)cc21 [Compound 459] |
| – | – | 98 | < 0.1 | 77 | > 1000 | C[C@@]1(C#N)COCc2ccc(C(=O)NCc3cc4nc(-c5ccccc5)ccc4cn3)cc21 [Compound 85] |
| > 1000 | 56 | 95 | 0.1 to 0.5 | – | – | C[C@@]1(C#N)COCc2ccc(C(=O)NCc3cc(/C(F)=C(\F)c4ccccc4)ccn3)cc21 [Compound 9] |
| > 1000 | 64 | 94 | 0.5 to 1 | – | – | C[C@@]1(F)COCc2ccc(C(=O)NCc3cc(C#Cc4ccccc4)ccn3)cc21 [Compound 14] |
| > 1000 | 32 | 90 | 0.1 to 0.5 | – | – | COc1cc(C(C)(C)C)ccc1-c1ccc2cnc(CNC(=O)c3ccc4c(c3)[C@](C)(C#N)COC4)cc2n1 [Compound 148] |
| 100 to 500 | 95 | 98 | < 0.1 | – | – | COc1cc(F)ccc1-c1ccc2cnc(CNC(=O)c3ccc4c(c3)[C@](C)(C#N)COC4)cc2n1 [Compound 481] |
| 500 to 1000 | 75 | 96 | < 0.1 | – | – | COc1cc(-c2ccc3cnc(CNC(=O)c4ccc5c(c4)[C@](C)(C#N)COC5)cc3n2)nc(N2CCC2)n1 [Compound 442] |

| IC50 (BRG-1) [nM] | Emax (BRG-1) [%] | BRM Max % Inhibition (BRM) [%] | IC50 (BRM) [µM] | BRG1 Max % Inhibition (BRG-1; ADP-Glo, 30 nM BRG-1, 400 μM ATP) [%] | IC50 (BRG-1; read-out: BRG1 ATPase: IC50, ADP-Glo, 30 nM BRG-1, 400 μM ATP) [nM] | SMILES |
| --- | --- | --- | --- | --- | --- | --- |
| > 1000 | 32 | 79 | > 1 | – | – | Cn1ccc(-c2ccc3cnc(CNC(=O)c4ccc5c(c4)[C@](C)(C#N)COC5)cc3n2)n1 [Compound 113] |
| > 1000 | 9 | 81 | 0.1 to 0.5 | – | – | O=C(NCc1cc2nc(-c3cncc(C4CC4)n3)ccc2cn1)c1cnc2c(c1)[C@@](F)(C(F)F)CCO2 [Compound 243] |
| > 1000 | 59 | 89 | 0.1 to 0.5 | – | – | COc1nn(C2CCOC2)cc1-c1ccc2cnc(CNC(=O)c3ccc4c(c3)[C@](C)(C#N)COC4)cc2n1 (stereo partly shown) [Compound 197] |
| 500 to 1000 | 58 | 90 | 0.1 to 0.5 | – | – | COC(=O)N1CCC2CC2(c2ccc3cnc(CNC(=O)c4ccc5c(c4)[C@](C)(C#N)COC5)cc3n2)C1 (stereo partly shown) [Compound 523] |
| < 100 | 92 | 100 | < 0.1 | – | – | Cn1ccc2c(F)cc(-c3ccc4cnc(CNC(=O)c5ccc6c(c5)[C@](C)(C#N)COC6)cc4n3)cc2c1=O [Compound 434] |
| > 1000 | 47 | 85 | 0.1 to 0.5 | – | – | Cc1cc(-c2ccc3cnc(CNC(=O)c4ccc5c(c4)[C@](C)(C#N)COC5)cc3n2)n(C)n1 [Compound 501] |
| > 1000 | 34 | 68 | > 1 | – | – | COC[C@H](NC(=O)c1ccc2c(c1)[C@](C)(C#N)COC2)c1cc(C#Cc2ccccc2)ccn1 [Compound 43] |
| 100 to 500 | 95 | 99 | < 0.1 | – | – | C[C@@]1(C#N)COCc2ccc(C(=O)NCc3cc4nc(-c5cccc6c5ccn6CCO)ccc4cn3)cc21 [Compound 159] |
| 100 to 500 | 80 | 97 | < 0.1 | – | – | C[C@@]1(C#N)COCc2ccc(C(=O)NCc3cc4nc(-c5ccc6ccc(=O)n(C7CC7)c6n5)ccc4cn3)cc21 [Compound 165] |
| 100 to 500 | 95 | 105 | < 0.1 | – | – | C[C@@]1(C#N)COCc2ccc(C(=O)NCc3cc4nc(-c5ccnc(N6CC7CC7C6)n5)ccc4cn3)cc21 (stereo partly shown) [Compound 321] |
| > 1000 | 69 | 97 | 0.1 to 0.5 | – | – | C[C@@]1(C#N)COCc2ccc(C(=O)NCc3cc(N4CCC(c5ccccc5)C4)ccn3)cc21 (stereo partly shown) [Compound 44] |
| < 100 | 97 | 99 | < 0.1 | – | – | COC1CCN(c2nccc(-c3ccc4cnc(CNC(=O)c5ccc6c(c5)[C@](C)(C#N)COC6)cc4n3)n2)C1 (stereo partly shown) [Compound 422] |
| > 1000 | 39 | 88 | 0.1 to 0.5 | – | – | CC1(c2nccc(-c3ccc4cnc(CNC(=O)c5ccc6c(c5)[C@](C)(C#N)COC6)cc4n3)n2)COC1 [Compound 137] |
| 500 to 1000 | 86 | 98 | 0.1 to 0.5 | – | – | C[C@@]1(C#N)COCc2ccc(C(=O)NCc3cc4nc(-c5ccc(N6CCC6)cc5)ccc4cn3)cc21 [Compound 125] |
| 500 to 1000 | 71 | 97 | 0.1 to 0.5 | – | – | COc1nn(C2CCC2)cc1-c1ccc2cnc(CNC(=O)c3ccc4c(c3)[C@](C)(C#N)COC4)cc2n1 [Compound 200] |
| 100 to 500 | 91 | 97 | < 0.1 | – | – | C[C@@]1(C#N)COCc2ccc(C(=O)NCc3cc4nc(-c5ccnc(C6CC6)n5)ccc4cn3)cc21 [Compound 417] |
| < 100 | 100 | 101 | < 0.1 | – | – | C[C@@]1(C#N)COCc2ccc(C(=O)NCc3cc4nc(-c5cccc(C6(O)CC6)n5)ccc4cn3)cc21 [Compound 384] |
| > 1000 | 25 | 87 | 0.1 to 0.5 | – | – | COc1ccccc1N1CCc2cnc(CNC(=O)c3ccc4c(c3)[C@](C)(C#N)COC4)cc2C1 [Compound 250] |
| > 1000 | 28 | 75 | > 1 | – | – | COC(=O)c1cccc(C#Cc2ccnc(CNC(=O)c3ccc4c(c3)[C@](C)(C#N)CCN4)c2)c1 [Compound 39] |
| > 1000 | 44 | 84 | > 1 | – | – | O=C(NCc1cc(C#Cc2ccccc2)ccn1)c1cccc(C2(C(F)F)COC2)c1 [Compound 13] |
| 500 to 1000 | 56 | 97 | 0.1 to 0.5 | – | – | COc1nn(C)cc1-c1cnc2cnc(CNC(=O)c3ccc4c(c3)[C@](C)(F)COC4)cc2c1 [Compound 338] |
